Key:
[1] = system: dexamethasone-induced rat growth failure model; assay: Combined administration study of human-type CNP-53 or various CNP derivatives in dexamethasone-induced rat growth failure model (Example 3); type: in vivo; settings: dexamethasone 0.67 mg/mL pump alone or combined with 15 mg/mL pump of the CNP peptide, 5-week-old male Wistar rat, n=5
Protocol: Osmotic pumps (MINI-OSMOTIC PUMP Model 2004, available from DURECT CORPORATION, flow rate: 0.25 μL/hr, for 28 days) were charged with 0.67 mg/mL solution of dexamethasone (dexamethasone injection “KS”, available from Kyoritsuseiyaku Corporation) and one osmotic pump was embedded in the hypoderm of the back of each 5-week-old male Crlj:WI (Wistar) rat (5 animals/group, Groups 2 to 6, a total of 25 animals). At the same time, one osmotic pump (the same as above) charged with a 15 mg/mL solution of CNP derivative (A) in Group 3, human-type CNP-53 in Group 4, CNP derivative (B) in Group 5 and CNP derivative (C) in Group 6 was embedded in the hypoderm of the back simultaneously. No substance was administered to the normal control group (Group 1, 5 animals). Then the animals were fed for 28 days, and transitions of the body weight, the body length and the tail length were measured. On the final day, the blood was collected from the abdominal aorta and the animals were caused to die under isoflurane anesthesia, and plasma was separated from the collected blood and the cholesterol concentration was determined by using a “LabAssay (trademark) cholesterol” (available from Wako Pure Chemical Industries, Ltd.). After collecting the blood and causing the animals to die, the right femur and thymus were extracted, and the length of the right femur and the weight of the thymus were measured.

[2] = system: rat growth failure induced by dexamethasone; assay: Follow-up administration test of CNP derivative (A) for rat growth failure induced by dexamethasone (Example 4); type: in vivo; settings: n=5
Protocol: Osmotic pumps (MINI-OSMOTIC PUMP Model 2004, available from DURECT CORPORATION, flow rate: 0.25 μL/hr, for 28 days) were charged with a 0.67 mg/mL solution of dexamethasone (dexamethasone injection “KS”, available from Kyoritsuseiyaku Corporation), and one osmotic pump was embedded in the hypoderm of the back of each 4-week-old male Crlj:WI (Wistar) rat (5 animals/group, Group 2 and Group 3), and the animals were fed for 14 days. […] During the feeding period, transitions of the body weight, the body length and the tail length were measured, and on the final day, blood was collected from the abdominal aorta and the animal was caused to die under isoflurane anesthesia, the right femur was extracted and its length was measured.

[3] = dexamethasone 0.67 mg/mL pump alone or with CNP derivative (A) 15 mg/mL pump for 28 days from Day 14
[4] = dexamethasone 0.67 mg/mL pump, 4-week-old male Wistar rat, baseline before CNP derivative (A)

C[C@@H]1C[C@H]2[C@@H]3CCC4=CC(=O)C=C[C@]4(C)[C@@]3(F)[C@@H](O)C[C@]2(C)[C@@]1(O)C(=O)CO [Dexamethasone, dexamethasone]
Body weight at dissection ([1]; 0.25 μL/hr continuous s.c. 28 days, mean ± SD): 286 ± 17 g | Body length at dissection ([1]; continuous s.c. 28 days): 199 ± 2 mm | Body length, variation from preadministration value (Δ value) ([1]; continuous s.c. 28 days): (23.8 ± 2.4) mm | Body weight, variation from preadministration value (Δ value) ([1]; continuous s.c. 28 days): (118 ± 15) g | Right femur length at dissection ([1]; continuous s.c. 28 days): 32.7 ± 0.3 mm | Tail length at dissection ([1]; continuous s.c. 28 days): 202 ± 3 mm | Tail length, variation from preadministration value (Δ value) ([1]; continuous s.c. 28 days): (35.2 ± 3.7) mm | thymus body weight ratio ([1]; continuous s.c. 28 days): [0.11 ± 0.02%] | thymus weight at dissection ([1]; continuous s.c. 28 days): 0.36 ± 0.04 g | Body weight at dissection (Day 28 of CNP derivative (A) administration) ([2]; dexamethasone 0.67 mg/mL pump 28 days alone or with CNP derivative (A) 15 mg/mL pump for 28 days from Day 14, male Wistar rat): 308 ± 20 g | Body length at dissection (Day 28 of CNP derivative (A) administration) [2, 3]: 204 ± 3 mm | Body length variation (Δ value) from starting of administration of CNP derivative (A) [2, 3]: (30 ± 1) mm | Body weight variation (Δ value) from starting of administration of CNP derivative (A) [2, 3]: (129 ± 9) g | Right femur length only at dissection [2, 3]: 32.9 ± 0.7 mm | Tail length at dissection (Day 28 of CNP derivative (A) administration) [2, 3]: 202 ± 8 mm | Tail length variation (Δ value) from starting of administration of CNP derivative (A) [2, 3]: (25 ± 7) mm | Body weight, Day 14 of dexamethasone administration (prior to administration of CNP derivative (A)) ([2]; dexamethasone 0.67 mg/mL pump, 4-week-old male Wistar rat, baseline before CNP derivative (A), mean ± SD): 179 ± 12 g | Body length, Day 14 of dexamethasone administration (prior to administration of CNP derivative (A)) [2, 4]: 174 ± 4 mm | Tail length, Day 14 of dexamethasone administration (prior to administration of CNP derivative (A)) [2, 4]: 177 ± 7 mm

— patent US20170080049A1, “MEDICINE AGAINST GROWTH FAILURE INDUCED BY ADMINISTRATION OF STEROID” (DAIICHI SANKYO COMPANY, LIMITED, priority 2014, published 2017)
